Results taken from paper PMC10060280, “The influence of cyclooxygenase inhibitors on kynurenic acid production in rat kidney: a novel path for kidney protection?” (Pharmacological Reports, 2023).
Counter-ions that a name gives are not always drawn. Like-named read-outs stand apart in the source and are kept apart here. Blank lines part the entries; values can stand above or below the molecule they belong to.

Experiments:
KAT I = molecular target: T1, KAT I (Rattus norvegicus, UniProt Q08415); assay: KAT I activity in rat kidney in vitro; format: biochemical; details: 2 µM L-KYN; for IC50: read-out: IC50 of KAT I inhibition; for effect on KAT I activity: 1 μM-1 mM drug
T1 construct: kidneys were homogenized in dialysate buffer (1:9; w/v); from tissue; host or cells: rat kidney (dialyzed supernatant of homogenate)
T1 sequence (Q08415 1-423): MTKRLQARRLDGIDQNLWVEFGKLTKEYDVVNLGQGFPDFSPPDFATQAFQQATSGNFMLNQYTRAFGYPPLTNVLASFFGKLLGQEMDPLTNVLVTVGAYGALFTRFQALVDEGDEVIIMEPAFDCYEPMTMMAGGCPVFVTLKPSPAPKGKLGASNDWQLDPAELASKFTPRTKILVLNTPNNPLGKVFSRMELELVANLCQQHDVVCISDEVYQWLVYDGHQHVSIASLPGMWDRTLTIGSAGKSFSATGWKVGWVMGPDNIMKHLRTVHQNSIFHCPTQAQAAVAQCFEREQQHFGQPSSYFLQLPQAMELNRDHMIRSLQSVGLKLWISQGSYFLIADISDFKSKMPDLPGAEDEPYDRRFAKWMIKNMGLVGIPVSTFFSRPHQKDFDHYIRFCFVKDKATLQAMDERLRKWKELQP
Procedure: (§1) KAT I and KAT II activity in rat kidneys in vitro was analyzed based on procedures previously presented in a study by Gramsbergen et al.. […] The homogenate was centrifuged (15,133×g, 15 min) and then collected supernatant was dialyzed against 4 L of the dialysate buffer for 12 h at 8 °C with the use of cellulose membrane dialysis tubing. […] L-KYN concentration used in this analysis was equal to plasma KYN concentration, as reported by […] et al., and was sufficient to obtain appropriate enzymatic activity. The optimal pH was set at 9.5 and 7.0 for KAT I or KAT II activity analysis, respectively. Glutamine (2 mM), a KAT I inhibitor, was added to samples to measure KAT II's activity. The reaction was terminated by moving all samples into the ice-cold bath. Finally, all samples were centrifuged and analyzed by HPLC, as described in the previous section. […] To analyze KAT's activity, kidneys from 14 rats were used. Presented data are shown as mean ± standard deviation (SD). The one-way analysis of variance (one-way ANOVA) followed by Tukey's multiple comparison test was applied to analyze differences between tested COX inhibitors. The half-maximal inhibitory concentrations values (IC50) were assessed by fitting the experimental data to a four-parameter logistic equation. Statistical analyses were done with the use of GraphPad Prism 6. Values of p < 0.05 were considered to be statistically significant.

KAT II = molecular target: T2, KAT II (Rattus norvegicus, UniProt Q64602); assay: KAT II activity in rat kidney in vitro; format: biochemical; details: 2 µM L-KYN; for IC50: pH 7.0, 2 mM glutamine, read-out: IC50 of KAT II inhibition
T2 construct: kidneys were homogenized in dialysate buffer (1:9; w/v); from tissue; host or cells: rat kidney (dialyzed supernatant of homogenate)
T2 sequence (Q64602 30-425): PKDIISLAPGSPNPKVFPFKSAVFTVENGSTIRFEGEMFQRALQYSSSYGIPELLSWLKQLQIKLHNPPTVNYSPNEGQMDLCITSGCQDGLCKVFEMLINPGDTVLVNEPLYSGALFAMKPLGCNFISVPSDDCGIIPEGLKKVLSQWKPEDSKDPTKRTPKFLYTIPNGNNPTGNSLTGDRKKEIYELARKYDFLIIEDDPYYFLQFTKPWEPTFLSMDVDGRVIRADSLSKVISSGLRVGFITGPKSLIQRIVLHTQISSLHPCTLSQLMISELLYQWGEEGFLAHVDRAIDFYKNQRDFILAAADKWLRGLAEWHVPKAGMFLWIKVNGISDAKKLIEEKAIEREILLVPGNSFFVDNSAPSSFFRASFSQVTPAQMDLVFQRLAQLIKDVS
Procedure: as §1

[1] = test system: KYNA content in the rat brain; details: cited from earlier work; for KYNA content in the rat brain: after drug administration
[2] = test system: KYNA production in rat kidney; assay: KYNA synthesis in rat kidney homogenate in vitro; format: biochemical; details: 10 μM L-KYN; for IC50: 2 h, 37 °C, read-out: IC50 of KYNA production inhibition
Procedure: In the first step, after the animals were decapitated, rat kidneys were harvested and immediately put on ice. Afterward whole kidneys were weighed and homogenized in prepared oxygenated Krebs–Ringer buffer at pH 7.4 (1:4; w/v). 100 µL of kidney homogenate was put into test tubes, pre-filled with oxygenated Krebs–Ringer buffer (containing 800 μL in every tube). […] At least six independent kidney samples were used for each experiment in this part of the study. Control samples, instead of the drug solution, contained an equal volume of a drug solvent (50 µL of DMSO or water). The reaction was stopped by adding 1 N HCl (100 μL per sample) on ice. […] Tissues from 14 animals were used in this part of the study. Presented data are shown as mean ± standard deviation (SD). The one-way analysis of variance (one-way ANOVA) followed by Tukey’s multiple comparison test was applied to analyze differences between tested COX inhibitors. The half-maximal inhibitory concentrations values (IC50) were assessed by fitting the experimental data to a four-parameter logistic equation. Statistical analyses were done with the use of GraphPad Prism 6. Values of p < 0.05 were considered to be statistically significant.

animal models of ADPKD = details: animal model of ADPKD, cited from earlier work
serum KYNA concentration = test system: serum KYNA concentration; design: method as in PMID 36271950; details: 20 healthy volunteers, acute administration, 5 h after drug administration; cited from earlier work
[3] = highest concentration tested 1 mM
[4] = pH 9.5, highest concentration tested 1 mM

Structure (SMILES): COc1ccc2c(c1)c(CC(=O)O)c(C)n2C(=O)c1ccc(Cl)cc1 [indomethacin]
IC50 (KAT I; pH 9.5, 2 h, 37 °C): 503 µM | IC50 (KAT II; 2 h, 37 °C): 420 µM | KYNA content in the rat brain [1]: elevated KYNA levels | IC50 [2]: 246 µM

Structure (SMILES): CC1=C(CC(=O)O)c2cc(F)ccc2/C1=C\c1ccc([S+](C)[O-])cc1 (stereo not shown) [sulindac]
cysts volume (animal models of ADPKD; nonselective COX inhibition): decrease cysts volume

Structure (SMILES): Cc1cnc(NC(=O)C2=C(O)c3ccccc3S(=O)(=O)N2C)s1 [meloxicam, meloxicam sodium salt hydrate]
IC50 (KAT I; pH 9.5, 2 h, 37 °C): 310 µM | IC50 (KAT II; 2 h, 37 °C): 155 µM | KYNA content in the rat brain [1]: Decreased KYNA content | IC50 [2, 3]: > 1000 µM

Structure (SMILES): Cc1ccc(-c2cc(C(F)(F)F)nn2-c2ccc(S(N)(=O)=O)cc2)cc1 [celecoxib]
cysts volume (animal models of ADPKD; selective COX-2 blockade): decrease cysts volume

Structure (SMILES): CS(=O)(=O)Nc1ccc([N+](=O)[O-])cc1Oc1ccccc1 [nimesulide]
IC50 (KAT I; pH 9.5, 2 h, 37 °C): 128 µM | IC50 (KAT II; [3]): > 1000 µM | IC50 [2]: 473 µM

Structure (SMILES): CN1C(C(=O)Nc2ccccn2)=C(O)c2ccccc2S1(=O)=O [piroxicam]
IC50 (KAT I; [4]): > 1000 µM | IC50 (KAT II; [3]): > 1000 µM

More lines, main results first:

effect on KAT I activity (KAT I): did not affect the activity of KAT I | IC50 (KAT II; [3]): > 1000 µM | IC50 [2, 3]: > 1000 µM
Structure (SMILES): CC(=O)Oc1ccccc1C(=O)O [acetylsalicylic acid]

IC50 (KAT I; [4]): > 1000 µM | IC50 (KAT II; 2 h, 37 °C): 191 µM | IC50 [2]: 230 µM
Structure (SMILES): O=C(O)Cc1ccccc1Nc1c(Cl)cccc1Cl [diclofenac, diclofenac sodium salt]
KYNA content in the rat brain [1]: elevated KYNA levels | KYNA concentration in the rat brain ([1]; following tail ischemia): increased KYNA concentration | decrease of KYNA synthesis ([2]; concentration not given): 64%

IC50 (KAT I; [4]): > 1000 µM | IC50 (KAT II; 2 h, 37 °C): 504 µM | IC50 [2]: 464 µM
Structure (SMILES): COc1ccc2cc([C@H](C)C(=O)O)ccc2c1 [naproxen, naproxen sodium]

effect on KAT I activity (KAT I): did not affect the activity of KAT I | effect on KAT II activity (KAT II; 1 μM-1 mM drug): not shown to inhibit KAT II activity
Structure (SMILES): CC(=O)Nc1ccc(O)cc1 [acetaminophen]
effect on KYNA production ([2]; 1 μM-1 mM drug): did not change KYNA production

effect on KAT I activity (KAT I): did not affect the activity of KAT I | IC50 (KAT II; [3]): > 1000 µM | IC50 [2, 3]: > 1000 µM
Structure (SMILES): CC(C)Cc1ccc(C(C)C(=O)O)cc1 (stereo not shown) [ibuprofen]
serum KYNA concentration (serum KYNA concentration): increases serum KYNA concentration
